Results as given in PubChem BioAssay (NCI).
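Growth conditions: 96-well plates. Treatment: test compound, 48 hours, 5 concentrations. Analysis: linear interpolation between bracketing concentrations; unreached endpoints set to highest concentration. GI50 = concentration required for 50% inhibition of growth. At the TGI there is no net growth.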

How the values were obtained:
Experiment in all cases: NCI tumour cell line growth inhibition, 48 h
RXF 393 renal = test system: RXF 393 renal
SK-MEL-5 melanoma = test system: SK-MEL-5 melanoma
HL-60(TB) leukemia = test system: HL-60(TB) leukemia
CCRF-CEM leukemia = test system: CCRF-CEM leukemia
MALME-3M melanoma = test system: MALME-3M melanoma
TK-10 renal = test system: TK-10 renal
A498 renal = test system: A498 renal
RPMI-8226 leukemia = test system: RPMI-8226 leukemia
NCI-H522 lung = test system: NCI-H522 lung
MDA-MB-435 = test system: MDA-MB-435

Row | Structure (SMILES) | TGI (RXF 393 renal) [µM] | TGI (SK-MEL-5 melanoma) [µM] | TGI (HL-60(TB) leukemia) [µM] | TGI (CCRF-CEM leukemia) [µM] | TGI (MALME-3M melanoma) [µM] | TGI (TK-10 renal) [µM] | TGI (A498 renal) [µM] | TGI (RPMI-8226 leukemia) [µM] | TGI (NCI-H522 lung) [µM] | GI50 (RXF 393 renal) [µM] | GI50 (SK-MEL-5 melanoma) [µM] | GI50 (A498 renal) [µM] | GI50 (HL-60(TB) leukemia) [µM] | GI50 (RPMI-8226 leukemia) [µM] | GI50 (CCRF-CEM leukemia) [µM] | GI50 (TK-10 renal) [µM] | GI50 (MDA-MB-435) [µM] | TGI (MDA-MB-435) [µM] | GI50 (NCI-H522 lung) [µM] | GI50 (MALME-3M melanoma) [µM]
1 | O=C(CO)CC(=O)C(=O)Nc1ccccc1 | > 100 | > 100 | > 100 | > 100 | > 100 | > 100 | – | – | – | – | – | – | – | – | – | – | – | – | – | –
2 | O=[N+]([O-])c1nccn1CC(O)CN1CC1 (configuration not stated) | 98.2 | > 100 | 73.1 | > 100 | > 100 | > 100 | > 100 | > 100 | 50.9 | – | – | – | – | – | – | – | – | – | – | –
3 | CC(=O)[CH-]C(=O)c1ccccc1.CC(=O)[CH-]C(=O)c1ccccc1.[Eu+3].[OH-].[OH3+] | > 100 | > 100 | > 100 | > 100 | – | > 100 | > 100 | > 100 | – | > 100 | > 100 | > 100 | > 100 | > 100 | > 100 | > 100 | – | – | – | –
4 | Oc1cc(O)c2c(-c3c(O)c(-c4ccc(O)c(O)c4)[o+]c4cc(O)cc(O)c34)c(O)c(-c3ccc(O)c(O)c3)[o+]c2c1 | 81.1 | > 100 | – | – | 84.6 | > 100 | > 100 | > 100 | – | – | – | – | – | – | – | – | – | – | – | –
5 | COc1ccc(/C=C/C(=O)c2ccc(SC)cc2)cc1OC | 29.4 | 31.7 | 79.6 | 82.1 | – | 32.8 | – | 21.2 | 27.4 | 12.7 | 14.5 | – | 25.7 | 4.02 | 5.26 | 14.7 | 3.44 | 13.4 | 5 | –
6 | CCC/C(=N/NC(=O)C(N)=O)C(CC)C(=O)CCC(=O)N(Cc1ccccc1)Cc1ccccc1 (configuration not stated) | > 100 | > 100 | > 100 | > 100 | > 100 | > 100 | > 100 | > 100 | > 100 | – | – | – | – | – | – | – | – | – | – | –
7 | CCOc1ccccc1NC(=O)CC1SC(=Nc2ccc([N+](=O)[O-])cc2)NC1=O (configuration not stated) | 39.7 | 30 | > 100 | 54.3 | 51.1 | 70.2 | – | 28.9 | – | – | – | – | – | – | – | – | – | – | – | –
8 | COc1c(OC)c(OC)c2c(c1OC)c(=O)c1ccccc1n2C | – | > 100 | > 100 | – | – | > 100 | > 100 | > 100 | > 100 | – | – | – | – | – | – | – | – | > 100 | – | –
9 | Fc1ccc2c(c1)c(-c1nc(-c3c[nH]c4ncccc34)cs1)cn2CCCN1CCCCC1 | – | 3.17 | – | – | – | 3.42 | 6.48 | – | – | – | 1.76 | 2.57 | – | – | – | 1.85 | 1.66 | 3.17 | – | –
10 | N#CC(C(=O)CCC(=O)C(C#N)c1ccccc1)c1ccccc1 (configuration not stated) | > 100 | > 100 | > 100 | > 100 | > 100 | > 100 | > 100 | > 100 | > 100 | – | – | – | – | – | – | – | – | – | – | –
11 | O=C1NC(=O)C2C(=O)NC(=O)C1C2(c1ccccc1)c1cc[nH]c1 (configuration not stated) | > 100 | > 100 | > 100 | > 100 | > 100 | > 100 | > 100 | > 100 | > 100 | – | – | – | – | – | – | – | – | – | – | –
12 | Cc1ccc(/C=C2/SC(Nc3nc(-c4csc(NC5=NC(=O)/C(=C\c6ccc(C)cc6)S5)n4)cs3)=NC2=O)cc1 | > 50 | 1.4 | 29.9 | – | – | 26.6 | – | – | > 50 | 23.8 | 0.0217 | – | 2.03 | – | – | 8.49 | – | – | 21.6 | –
13 | CCC1(c2c(F)c(F)c(N)c(F)c2F)CCC(=O)NC1=O (configuration not stated) | – | > 100 | > 100 | > 100 | > 100 | > 100 | > 100 | > 100 | > 100 | – | – | – | – | – | – | – | – | – | – | –
14 | CC(=O)[CH-]C(=O)c1ccccc1.CC(=O)[CH-]C(=O)c1ccccc1.CC1(C)C2CCC1(C)C([O-])C2.CC1(C)C2CCC1(C)C([O-])C2.[Ti+4] | 36.1 | 39.1 | > 100 | > 100 | 30.2 | > 100 | – | > 100 | – | 17.6 | 21.9 | – | 23.8 | 25 | 25.1 | 53.5 | – | – | – | 12.4
15 | CC1(c2cccc3ccccc23)OC(=O)c2ccccc21 (configuration not stated) | 46.1 | 26.2 | 43.4 | 52.3 | 53.4 | > 100 | 68.3 | 77.6 | 61.4 | – | – | – | – | – | – | – | – | – | – | –
16 | c1ccc2[nH]c(-c3ccc(NN=Nc4ccncc4)cc3)nc2c1 | > 100 | > 100 | > 100 | – | – | > 100 | – | 38.4 | > 100 | 58.1 | 24.1 | – | > 100 | 6.3 | – | 52.5 | 30.7 | > 100 | 77.6 | –
17 | COC(=O)C(=O)OC1(C(C)=O)CC2(c3ccccc3)OC1(c1ccccc1)c1ccccc12 (configuration not stated) | 29 | 28.8 | > 100 | > 100 | 35.2 | 70.6 | 33.4 | > 100 | 34.7 | – | – | – | – | – | – | – | – | – | – | –
18 | Oc1ccccc1C=NCc1ccco1 | > 100 | – | > 100 | > 100 | > 100 | > 100 | > 100 | > 100 | – | – | – | – | – | – | – | – | – | – | – | –
19 | BrC1=CC=C2NC=CC3=CC=NC1C32 (configuration not stated) | 51.7 | 45.4 | 12.1 | 28.6 | 67.1 | 99.8 | 85.4 | 37.8 | 27.3 | – | – | – | – | – | – | – | – | – | – | –
20 | N/C(=C\c1ccc(OCc2ccccc2)c(OCc2ccccc2)c1[N+](=O)[O-])C(=O)O | > 100 | > 100 | > 100 | > 100 | > 100 | > 100 | > 100 | > 100 | > 100 | – | – | – | – | – | – | – | – | – | – | –
21 | O=NNc1ccc(S(=O)(=O)c2ccccc2)cn1 | – | – | – | > 100 | > 100 | > 100 | > 100 | – | > 100 | – | – | – | – | – | – | – | – | – | – | –
22 | N#CC(C(=O)/C(=N/N)C(C#N)c1ccccc1)c1ccccc1 (configuration not stated) | > 100 | > 100 | > 100 | > 100 | > 100 | > 100 | – | > 100 | > 100 | – | – | – | – | – | – | – | – | – | – | –
